The nature of data set [1]: Exposure of solids at 25° C./60% RH and 40° C./75% RH (water absorption). It counts as physicochemical. As to conditions: 7 days at 25° C./60% RH and 40° C./75% RH. As to the method: Furthermore, the preparation of a single active pharmaceutical ingredient reduces the cost of manufacture of a treatment dosage. In addition, the need for dosing of a single material reduces the chance for errors in the formulation of the product.
In a 4:1 ratio approximately 200 mg of calfodipir (CaDPDP) and 50 mg of mangafodipir (MnDPDP) were weighed into a 40 mL vial and dissolved in 40 mL of DI water at room temperature to generate a yellow solution. The yellow aqueous solution was spray dried using a Buchi Mini-Spray Dryer B-290 while attached to the Buchi dehumidifier B-296 as an air conditioner allowing the intake of air from the laboratory. Spray drying optimization experiments were performed at elevated inlet temperatures (220° C.) with varying feed rates (20, 30, 40, 50 and 60%). Recovery of product ranged from 180-230 mg.

The test system of data set [2] is CT26 tumors. Description: Antitumor activity of oxaliplatin with or without calmangafodipir in CT26-bearing immune competent and nude balb/c mice. The data set is classed as in vivo. As to conditions: 5 mg/kg calmangafodipir with 10 mg/kg oxaliplatin. The method, then: When the cells reached ˜50% confluency they were harvested by trypsinization. Briefly, cells were washed with PBS (pH 7.3) and exposed to 0.05% Trypsin/0.53 mM EDTA at 37° C. for ˜5 min. The trypsinization was stopped by adding RPMI 1640 culture medium. Cells were counted and centrifuged at 200×g for 5 min. Thereafter, they were washed in PBS, centrifuged again and resuspended in PBS at a concentration of 2×10^6/350 μl for injection into mice. Immune competent balb/c female mice (balb/c) and immune incompetent nude female balb/c mice (blab/c nu/nu) between 6 and 8 weeks of age were used, as described by Laurent et al., 2005. Briefly, each mouse was injected subcutaneously in the back of the neck with 2×10^6 of CT26 cells at day 0. After 7 days (day 7) when the tumors were detectable, the tumor size was determined with a caliper and mice were grouped (5 in each group) so that the sizes of the tumors were not statistically different by group. Groups of mice (5 in each group, as illustrated in FIG. 14) were injected i.v. with saline or 5 mg/kg calmangafodipir (lot #11AK0105B) 30 minutes prior to i.p. administration of 10 mg/kg oxaliplatin (diluted in 5% glucose) or 5% glucose. Mice received in addition saline or 5 mg/kg calmangafodipir 24 hours later (day 8). The mice were sacrificed on day 10 and the tumors were excised and wet weights were determined. The results are presented in a graph for the various treatments (mean±S.E.M.).

In the next data set the test system is human U1810 NSCLC cells. As to the kind of experiment: MTT viability assay, cytotoxic activity. It counts as cell-based. The method, then:
(§1) The viability of U1810 or LLC1 cells in the presence of increasing concentrations of calmangafodipir or mangafodipir is presented as concentration response curves (mean±S.D.). The individual curves were fitted to the sigmoidal variable slope response logistic equation (Graphpad Prism, version 5.02). From this analysis the concentrations causing 50% inhibition (IC50) of the test substances were calculated.
On the technique in general: Tetrazolium assays rely on reduction of a dye to a coloured formazan, in cell work by metabolically active cells.

Data set [3] relates to CT26 tumors. As to the kind of experiment: Antitumor activity of oxaliplatin with or without calmangafodipir in CT26-bearing mice. It counts as in vivo, balb/c mice. As to the method: When the cells reached ˜50% confluency they were harvested by trypsinization. Briefly, cells were washed with phosphate based saline (PBS) (pH 7.3) and exposed to 0.05% Trypsin/0.53 mM EDTA at 37° C. for ˜5 min. The trypsinization was stopped by adding RPMI1640 culture medium. Cells were counted and centrifuged at 200×g for 5 min. Thereafter, they were washed in PBS, centrifuged again and resuspended in PBS at a concentration of 2×10^6/350 μl for injection into mice. Balb/c female mice between 6 and 8 weeks of age were used, as described by Laurent et al., 2005. Briefly, each mouse was injected subcutaneously in the back of the neck with 2×10^6 of CT26 cells at day 0. After 7 days (day 7) when the tumors were detectable, the tumor size was determined with a caliper and mice were grouped (5 in each group) so that the sizes of the tumors were not statistically different by group. Oxaliplatin±calmangafodipir (lot #11AK0105B) was injected and one group of mice received vehicle (0.9% saline+5% glucose) treatment alone. In a first series of experiments, mice were injected i.v. with saline or 50 mg/kg calmangafodipir 30 minutes prior to i.p. administration of 20 mg/kg oxaliplatin (diluted in 5% glucose) or 5% glucose. These mice received in addition saline or 50mg/kg calmangafodipir 24 hours later (day 8). In another series of experiments, mice were injected i.v. with saline or 5 mg/kg calmangafodipir 30 minutes […] (diluted in 5% glucose) or 5% glucose, and saline or 5 mg/kg calmangafodipir 24 hours later (day 8). The mice were killed on day 10 and the tumors were excised and wet weights were determined.

Another data set relates to white blood cells (WBC). As to the kind of experiment: Myelosuppressive effects of oxaliplatin in balb/c mice, cytoprotection. Particulars: 12.5 mg/kg oxaliplatin plus 5 mg/kg calmangafodipir iv 30 min before and 24 h after.
Data set [4] is described as follows: Variable humidity XRPD analysis of crystalline forms. It counts as physicochemical. Particulars: 10 mg scale, change of ambient humidity. The source says:
X-Ray Powder Diffraction (XRPD) is most widely used in the identification and characterization of crystalline solids, each of which produces a distinctive diffraction pattern. Both the positions (corresponding to lattice spacings) and the relative intensity of the lines are indicative of a particular phase and material, providing a “fingerprint” for comparison.

Data set [5] deals with white blood cells (WBC), lymphocytes (LYM), neutrophils (NEU). As to the kind of experiment: Myelosuppressive effects of carboplatin in balb/c mice, cytoprotection. The data set is classed as in vivo. The text has this: A control group received vehicle (saline) and saline instead of carboplatin.
A short description of data set [6]: Mn content of brain, pancreas and liver after repeated intravenous injections. Particulars: rats, 39 iv doses, 72 μmol/kg manganese each, 3 times a week for 13 weeks.
Method: After the 13-week administration period, the rats were sacrificed and the brains and pancreas were dissected out and approximately 0.5 g samples were stored frozen until Mn analysis. The Mn content of each sample was analyzed by ICP-MS. Results are expressed as μg/g wet weight±S.E.M. Statistical difference between the mangafodipir group and the calmangafodipir group, with respect to Mn content, was tested by a paired Student's t-test. A p-value lower than 0.05 was considered as a statistically significant difference.
Data set [7] relates to CT26 (mouse colon carcinoma) cells. As to the kind of experiment: MTT viability assay, cytotoxic activity. Particulars: 48 h, 1-1,000 μM. As to the method: The viability of cells was measured using the MTT assay. […] The viability of the cells was then assessed by adding 5 mg/ml methylthiazoletetrazolium (MTT) to a final concentration of 0.5 mg/ml and incubating cells for a further 4 h at 37° C. The blue formazan that is formed by mitochondrial dehydrogenases of viable cells was then dissolved over night at 37° C. by adding 10% SDS and 10 mM HCl to a final concentration of 5% SDS and 5 mM HCl. Finally, the absorbance of the solution was read at 570 nm with a reference at 670 nm in a microplate reader Spectramax 340 (Molecular Devices, Sunnyvale, Calif., USA) connected to an Apple Macintosh computer running the program Softmax Pro V1.2.0 (Molecular Devices, Sunnyvale, Calif., USA).

The subject of a further data set is LLC1 NSCLC cells. Description: MTT viability assay, cytotoxic activity. As to conditions: 48 h. It counts as cell-based, murine. The method, then: as §1
A short description of data set [8]: Manganese urine excretion 0-24 h after intravenous injection. Particulars: rats.
Method: To obtain basal content of manganese (Mn) and zinc (Zn) in urine, two additional (control) rats received 0.25 ml saline and were placed in metabolic cages for urine collection over the same period of time. The urine samples were then stored at −80° C. until Mn analysis. Before analysis, the samples were thawed and extensively shaken to obtain homogenous samples. A five ml aliquot was taken from each sample and 5 ml concentrated nitric acid was added. The samples were then resolved in a microwave oven and thereafter diluted with distilled water to a final volume of 50 ml. The Mn content of each sample was analyzed by ICP-MS (Inductively Coupled Plasma Mass Spectrometry). Identical samples of calmangafodipir and mangafodipir as those injected in the rats (i.e., 0.25 ml) were withdrawn and injected into test tubes. These samples were treated in an identical manner to that of the urine samples and analyzed for their Mn content. Results are presented as total 0-24 h urine Mn content (expressed as μmol/kg±S.E.M.) and as percentage (±S.E.M.) of the injected dose. […] A p-value lower than 0.05 was considered as a statistically significant difference.

Where only a bound is given, the exact number is not on record here.

As to `Cc1ncc(COP(=O)([O-])O)c(CN(CCN(CC(=O)O)Cc2c(COP(=O)([O-])O)cnc(C)c2O)CC(=O)O)c1O.Cc1ncc(COP(=O)([O-])O)c(CN(CCN(CC(=O)O)Cc2c(COP(=O)([O-])O)cnc(C)c2O)CC(=O)O)c1O.Cc1ncc(COP(=O)([O-])O)c(CN(CCN(CC(=O)O)Cc2c(COP(=O)([O-])O)cnc(C)c2O)CC(=O)O)c1O.Cc1ncc(COP(=O)([O-])O)c(CN(CCN(CC(=O)O)Cc2c(COP(=O)([O-])O)cnc(C)c2O)CC(=O)O)c1O.Cc1ncc(COP(=O)([O-])O)c(CN(CCN(CC(=O)O)Cc2c(COP(=O)([O-])O)cnc(C)c2O)CC(=O)O)c1O.[Ca+2].[Ca+2].[Ca+2].[Ca+2].[Mn+2]` [calmangafodipir], the “appearance of solid after exposure” value in data set [1] is on record as “remained a free flowing solid”. The “influence on antitumor effect of oxaliplatin” value in the data set on CT26 tumors [2] (immune competent and immune incompetent mice) is recorded as “did not have any negative influence on the antitumor effect of oxaliplatin”; in the data set with CT26 tumors [3] (5 mg/kg calmangafodipir iv with 10 mg/kg oxaliplatin) it was “statistically significant better antitumor effect”; in the data set on CT26 tumors [3] (50 mg/kg calmangafodipir iv with 20 mg/kg oxaliplatin), “did not have any negative influence on the antitumor effect of oxaliplatin”. Further, the “mean tumor weight compared to controls” value with CT26 tumors [2] (immune competent mice) is on record as “statistically significantly reduced”; in the data set on CT26 tumors [2] (immune deficient mice), “no such reduction was seen”. Also, the “IC50 ratio between mangafodipir and calmangafodipir (potency relative to mangafodipir)” value with human U1810 NSCLC cells is “about 28 times”. In the data set with human U1810 NSCLC cells (48 h, MTT, read-out: IC50 (concentration causing 50% inhibition of viability)), the IC50 was found to be 22.7 µM. In addition, in the data set with white blood cells (WBC), the “fall in WBC” value is reported as “about 25%”. In addition, the “time within which form conversions occur” value in data set [4] was no more than 3 h. For the same molecule, the “effect on carboplatin-induced decreases in WBC, NEU and LYM” value in [5] (calmangafodipir 3 mg/kg with carboplatin 125 mg/kg) was “abolished these decreases”. Moreover, the “shape of dose-response of myeloprotection” value in data set [5] (calmangafodipir 1, 3, 10 or 30 mg/kg with carboplatin 125 mg/kg) was “bell shaped appearance”. In data set [6], this molecule registered a Mn brain content of 0.74±0.01 μg/g w.w. Further, the “Mn content in the pancreas” value in [6] amounted to 3.35 ± 0.19 µmol/kg. Moreover, the “cytotoxic activity relative to mangafodipir” value in [7] was “about 20 times”. For the same molecule, the “potency to kill cells compared with mangafodipir” value in the data set with LLC1 NSCLC cells is reported as “significantly more potent than mangafodipir”. Also, the “Mn recovered in 0-24 h urine” value in data set [8] (iv 0.25 ml, 2.59 μmol Mn (mangafodipir) or 2.52 μmol Mn (calmangafodipir) injected) is 1.27 ± 0.07 µmol. In addition, the “Mn in 0-24 h urine as percentage of the injected dose” value in [8] (iv, basal excretion subtracted) is 50.5±2.6%.

These data come from patent US10111893B2, “Calmangafodipir, a new chemical entity, and other mixed metal complexes, methods of preparation, compositions, and methods of treatment” (priority 2012, dated 2018).
